Results on ten compounds are retold here after paper PMC6832134, “Discovery of Novel Integrase Inhibitors Acting outside the Active Site Through High-Throughput Screening” (Molecules, 2019).

The target of data set [1] is T1, HIV-1 IN (Human immunodeficiency virus type 1 group M subtype B, UniProt P12497).
T1 construct: 250 nM of recombinant HIV-1 integrase; made in house; host or cells: E. coli RosettaII
Also noted: method as in PMID 12920196. Conditions: regardless of metal cofactor; ref [4]; read-out: IC50, inhibition of 3'-P; cited from earlier work.

Another data set addresses T2, HIV-1 integrase (Human immunodeficiency virus type 1 group M subtype B, UniProt P12497).
T2 construct: 250 nM of recombinant HIV-1 integrase; made in house; host or cells: E. coli RosettaII
Put plainly: Electrochemiluminescent integrase strand transfer assay (BioVeris), high-throughput screen. Format: biochemical. Conditions: for inhibition at 10 µM: single dose 10 µM, read-out: inhibition of IN ST activity. As to the method: To enable a high-throughput screening, we used the ST assay developed by BioVeris. This proprietary plate-based assay measured stand transfer using electrochemiluminescent technology. First, we validated the assay using HIV-1 IN in the presence of DMSO, or increasing concentrations of a known inhibitor, MA-DKA (also known as 118-D-24, Figure 1A). […] Next, we used MA-DKA as a control in every test plate and screened a large library of molecules. Overall, 3095 compounds were tested as part of the NCI Developmental Therapeutics Program’s small molecule plated sets from the Open Chemical Repository Collection. […] A single dose testing (10 µM) enabled the identification of 130 molecules that inhibited ST by over 50% (light dashed line, Figure 1A). […] NSC153308 is a 2-phenacylsulfanylacetic acid that resembles the diketo acid chemotype. On the other side, NSC119889 is a xanthene derivative similar to V-165 [6]. […] However, the purpose of this study was to identify a new chemotype that might act on IN via a novel mechanism, distinct from known active site inhibitors. Accordingly, we retrieved the chemical structure of the 130 hits and looked for a chemical pattern different from that of conventional strand transfer inhibitors.
This electrochemiluminescent plate-based assay was performed using a BioVeris M-SERIES Analyzer (Gaithersburg, MD, USA). DNA substrates were obtained from BioVeris and used according to the manufacturer’s recommendations. Briefly, a biotinylated donor DNA was incubated for 30 min at 37 °C in the presence of 250 nM of recombinant HIV-1 integrase. Complexes were bound to paramagnetic streptavidin-coated beads (M-280 Dynabeads). After addition of the drug, the integration reaction was initiated by addition of a ruthenium-labeled target DNA. The reaction was carried out for 60 min at 37 °C, before reading on the BioVeris M-SERIES Analyzer.

In data set [2] the target is T1, HIV-1 IN. Also noted: method as in PMID 12920196. To be noted: ref [4], read-out: IC50, ST inhibition, cited from earlier work.
For data set [3], the target named is T1, HIV-1 IN. The experiment in a line: Gel-based IN 3'-processing assay. Format: biochemical. To be noted: at least three independent experiments, read-out: In Vitro IC50 +/−SD, 3'-P. The procedure: (§1) IN reactions were carried out by adding drugs or an equivalent volume of 100% DMSO (dimethyl sulfoxide, used as the drug solvent) to a mixture of 20 nM duplex DNA (21T/21B) and 400 nM IN in 50 mM MOPS pH 7.2, 7.5 mM MgCl2, and 14 mM 2-mercaptoethanol. Reactions were performed at 37 °C for 2 h and quenched by addition of an equal volume of loading buffer [formamide containing 1% SDS (sodium dodecyl sulfate), 0.25% bromophenol blue, and xylene cyanol]. Reaction products were separated in 16% polyacrylamide denaturing sequencing gels. Dried gels were visualized using a Typhoon 8600 (GE Healthcare, Piscataway, NJ, USA). Densitometric analyses were performed using the ImageQuant 5.1 software from GE Healthcare. Data analyses (linear regression, IC50 determination, and standard deviation) were performed using Prism 6.05 software from GraphPad.

Another data set has as its target T3, HIV-1 IN (WT) (Human immunodeficiency virus type 1 group M subtype B, UniProt P12497).
T3 construct: 250 nM of recombinant HIV-1 integrase; made in house; host or cells: E. coli RosettaII
Put plainly: Gel-based IN strand transfer assay, WT enzyme. Conditions: gel-based assay, coupled ST, at least three independent experiments; read-out: In Vitro IC50 +/−SD, ST. It counts as biochemical. The procedure: as §1

A further data set addresses T4, HIV-1 IN mutant Y143R (Human immunodeficiency virus type 1 group M subtype B, UniProt P12497, Y1290R).
T4 construct: RAL-resistant HIV-1 mutant integrases; made in house; host or cells: E. coli RosettaII
The experiment in a line: Gel-based IN strand transfer assay, Y143R mutant. Format: biochemical. As to the method:
as §1

Data set [4] has as its target T1, HIV-1 IN. The experiment in a line: Synergy test with the active site inhibitor MK-2048. To be noted: subinhibitory dose of stilbene disulfonic acid derivative; IC50 of MK-2048 not affected; data not shown. It counts as biochemical.
Data set [5] concerns the target T5, HIV-1 IN mutant N155H (Human immunodeficiency virus type 1 group M subtype B, UniProt P12497, N1302H).
T5 construct: RAL-resistant HIV-1 mutant integrases; made in house; host or cells: E. coli RosettaII
The experiment in a line: biochemical. It counts as biochemical. The procedure:
as §1

The next data set can be described thus: in vitro. To be noted: human.
Data set [6] deals with T6, HIV-1 IN mutant G140S/Q148H (Human immunodeficiency virus type 1 group M subtype B, UniProt P12497, G1287S/Q1295H).
T6 construct: RAL-resistant HIV-1 mutant integrases; made in house; host or cells: E. coli RosettaII
Put plainly: Gel-based IN strand transfer assay, G140S/Q148H mutant. It counts as biochemical. As to the method: as §1

The test system of data set [7] is VSV pseudo-typed HIV-1 virus particles. Put plainly: organism not typed. Format: cell-based. To be noted: for EC50: read-out: Ex Vivo Antiviral Activity EC50.
For data set [8], the system named is HIV-1 IN mutant N155H. The experiment in a line: biochemical. Format: biochemical. To be noted: N155H vs WT, Figure 2B. The procedure:
as §1

Each structure is given as a SMILES string. Values joined by “and” are separate entries in the source; they are usually repeats but may differ in a detail not shown here. Equal entries are not always repeated. Where two headings read alike, the source gives them in different places.

In the case of `O=C(O)C(=O)CC(=O)c1cccn1Cc1ccc(F)cc1` [MA-DKA], the IC50 is 70000 nM at HIV-1 IN [1]; 163 nM on HIV-1 integrase (electrochemiluminescent plate-based assay, dose response, read-out: IC50, ST inhibition); 330 nM at HIV-1 IN [2] (magnesium as cofactor); 70 nM on HIV-1 IN [2] (manganese as cofactor). Further, at HIV-1 integrase (at 10 µM, obtained from linear regression of the dose response in Figure 1A), the “inhibition of IN ST activity” value is on record as 94.8%.

In the case of `Nc1ccc(/C=C/c2ccc(N)cc2S(=O)(=O)O)c(S(=O)(=O)O)c1` [NSC163], the IC50 on HIV-1 IN [3] and on HIV-1 IN (WT) was greater than 111000 nM each time.

As a reminder, the EC50 is the concentration giving half of the maximal effect. For the compound `Nc1ccc(/N=N/c2ccc(/C=C/c3ccc(/N=N/c4ccc(N)c5ccc(S(=O)(=O)O)cc45)cc3S(=O)(=O)O)c(S(=O)(=O)O)c2)c2cc(S(=O)(=O)O)ccc12` [NSC34933], the IC50 at HIV-1 IN mutant Y143R was 95 nM; at HIV-1 IN [3] it was 1100 ± 300 nM; against HIV-1 IN mutant N155H [5], 91 nM; in data set [6] it was 320 nM; at HIV-1 IN (WT), 500 ± 200 nM. Also, at HIV-1 IN [4], the “synergy with active site inhibitor MK-2048” value is on record as “could not see any cooperative effect”. Further, the CC50 in “in vitro” is greater than 100000 nM. Moreover, the “Selectivity Index SI” value in data set [7] is reported as greater than 166. In addition, the EC50 in data set [7] turned out to be 600 nM.

As for `CCOc1ccc(/N=N/c2ccc(/C=C/c3ccc(/N=N/c4ccc(OCC)cc4)cc3S(=O)(=O)O)c(S(=O)(=O)O)c2)cc1` [NSC47745], the IC50 at HIV-1 IN [3] is ~3000 nM and 3200 nM; on HIV-1 IN (WT) it was ~3000 nM and 3100 nM. In “in vitro”, the CC50 was greater than 100000 nM. The “Selectivity Index SI” value in data set [7] is on record as greater than 6.5. In data set [7], the EC50 came out at 15300 nM.

As a reminder, the inhibition is the relative decrease from the control value, in per cent. Take `O=C(Nc1ccc(Sc2ccc(/N=N/c3c(O)c(S(=O)(=O)O)cc4cc(S(=O)(=O)O)ccc34)cc2)cc1)c1ccc(/N=N/c2c(O)ccc3c(S(=O)(=O)O)cc(S(=O)(=O)O)cc23)cc1` [NSC76027]: the inhibition at 10 µM on HIV-1 integrase is 62.8%.

On to `O=C(O)c1c(Br)c(Br)c(Br)c(Br)c1C1c2ccc(O)cc2Oc2cc(O)ccc21` [NSC119889], for which the inhibition at 10 µM at HIV-1 integrase came to 98.5%.

As for `O=C(O)CSCC(=O)c1ccccc1` [NSC153308], the inhibition at 10 µM on HIV-1 integrase is 99.5%.

For `O=[N+]([O-])c1ccc(/C=C/c2ccc([N+](=O)[O-])cc2S(=O)(=O)O)c(S(=O)(=O)O)c1` [NSC163175], the IC50 at HIV-1 IN [3] and on HIV-1 IN (WT) was greater than 111000 nM throughout.

Consider `O=S(=O)(O)c1cc(/N=N/c2cc(S(=O)(=O)O)c3cccnc3c2O)ccc1/C=C/c1ccc(/N=N/c2cc(S(=O)(=O)O)c3cccnc3c2O)cc1S(=O)(=O)O` [NSC638352], for which the inhibition at 10 µM at HIV-1 integrase was found to be 67.2%.

In the case of `Cc1nnc(C(=O)NC(C)(C)c2nc(C(=O)NCc3ccc(F)cc3)c(O)c(=O)n2C)o1` [RAL, raltegravir, reference compound], in the data set with HIV-1 IN mutant N155H [8], the “loss of potency compared to the WT enzyme” value was “one to two orders of magnitude”.
